Consider 5 compounds from patent US8846711B2, “Heterocyclic acrylamides and their use as pharmaceuticals” (Fab Pharma S.A.S., priority 2009, dated 2014).

The target of experiment [1] is recombinant S. aureus FabI enzyme (Staphylococcus aureus (strain MRSA252), UniProt Q6GI75). Nature of the experiment: FabI inhibition, fluorescence based assay. Format: biochemical. Conditions: in vitro. How it is done: Compound inhibitory activity of FabI enzyme is measured in vitro by the […] determination using a fluorescence based assay.
The protein FabI from S. aureus is prepared and purified using standard methods for recombinant protein expression after cloning of the gene in a prokaryotic expression vector.
The biochemical activity of the FabI enzyme is assessed using the following method.
The assay buffer “AB” contained 50 mM ADA (N-(2-acetamido)iminodiacetic acid monosodium salt) pH 6.5, 1 mM dithiothreitol, 0.006% Triton-X100 and 50 mM NaCl.
The following components are added in a white polystyrene Costar plate (Ref 3912) up to a final volume of 55.5 μL: 1.5 μL DMSO or inhibitor dissolved in DMSO and 54 μL of a FabI/NADPH/NADP+ mixture in AB. After 60 min of pre-incubation at room temperature, the reaction is started by addition of 5 μL of trans-2-octenoyl N-acetylcysteamine thioester (t-o-NAC) to a final volume of 60.5 μL. This reaction mixture is then composed of 2 nM FabI, 40 μM NADPH (Sigma, N7505), 10 μM NADP+ (Sigma, N5755), 100 μM t-O-NAC and compound at defined concentration. Fluorescence intensity of NADPH (λex=360 nm, […]) is measured immediately after t-O-NAC addition (T0), and approximately 50 min later (T50) by a Fluostar Optima (BMG) so as to achieve ±30% of NADPH conversion. Enzyme activity is calculated by first subtracting TO signal to T50 and then subtracting background signal (FabI=0). Percentages of inhibition are calculated against untreated samples (Inhibitor=0) and IC50 are fitted to a classical Langmuir equilibrium model using XLFIT (IDBS).

Experiment [2] has as its system S. aureus CIP 54.146. Briefly: MIC determination using broth microdilution method. Format: cell-based. Particulars: Staphylococcus aureus, CIP54 / MSSA, read-out: MIC (μg/ml) S. aureus CIP 54.146. How it is done: The compounds of the invention are useful antibacterial agents having a selective spectrum of activity in vitro against bacterial strains relying on FabI and related targets. […] The activity is presented as Minimum Inhibitory Concentration (MIC) expressed in μg/ml and was determined using broth microdilution or Agar dilution methods.
(§1) Antibacterial activity was determined on strains from Mutabilis internal collection.
This protocol is compliant with Clinical Laboratory Standards Institute (CLSI) methodology as described in M7-A7 document of the CLSI. The compound to be tested is diluted according to a geometric series of reason 2 in pure DMSO. Dilutions are transferred in sterile polystyrene microplates, followed by mid-log phase bacteria in cation-adjusted Muller-Hinton broth (ca-MHB, Fluka, Reference 90922) with a final inoculum of 5×10^5 cfu/ml. Microplates are incubated overnight at 35° C. MIC is defined as the lowest concentration of antimicrobial agent that completely prevents visible bacterial growth. All manipulations, but compound handling (in pure DMSO), are performed under sterile conditions. The final concentration of DMSO in the plates is 2%.

Experiment [3] has as its system Staphylococcus aureus NRS483. Briefly: MIC determination using agar dilution method. It counts as cell-based. Conditions: MRSA / NRS 483, read-out: MIC (μg/ml) NRS483. How it is done:
as §1
(§2) This protocol is compliant with Clinical Laboratory Standards Institute (CLSI) methodology as described in M7-A7 document of the CLSI. The compound to be tested is incorporated into Mueller-Hinton Agar medium (Fluka, Reference 70191) at one concentration per plate according to a geometric series of reason 2. Plates are inoculated with mid-log phase bacteria (inoculum=1×10^4 cfu/spot) and incubated overnight at 35° C. […] All manipulations, but compound handling (in pure DMSO), are performed under sterile conditions. The final DMSO concentration of DMSO in the plates is 2%. Vancomycin is used as reference.

The subject of experiment [4] is Staphylococcus aureus NRS121. Nature of the experiment: MIC determination using agar dilution method. Format: cell-based. Conditions: MRSA / NRS 121, read-out: MIC (μg/ml) NRS121. How it is done: as §1, §2
For experiment [5], the system named is Staphylococcus aureus NRS127. Briefly: MIC determination using agar dilution method. It counts as cell-based. Conditions: MRSA / NRS 127, read-out: MIC (μg/ml) NRS127. How it is done: as §1, §2
Experiment [6] concerns Staphylococcus aureus NRS119. Nature of the experiment: MIC determination using agar dilution method. Format: cell-based. Particulars: MRSA / NRS 119, read-out: MIC (μg/ml) NRS119. How it is done: as §1, §2
For experiment [7], the system named is Staphylococcus aureus NRS385. Briefly: MIC determination using agar dilution method. It counts as cell-based. Conditions: MRSA / NRS 385, read-out: MIC (μg/ml) NRS385. How it is done: as §1, §2
Experiment [8] deals with Staphylococcus aureus NRS130. Nature of the experiment: MIC determination using agar dilution method. It counts as cell-based. Particulars: MSSA / NRS 130, read-out: MIC (μg/ml) NRS130. How it is done:
as §1, §2

For experiment [9], the system named is Staphylococcus aureus NRS269. Briefly: MIC determination using agar dilution method. Format: cell-based. Particulars: MRSA / NRS 269, read-out: MIC (μg/ml) NRS269. How it is done:
as §1, §2

Experiment [10] relates to Staphylococcus aureus NRS123. Nature of the experiment: MIC determination using agar dilution method. It counts as cell-based. Conditions: MRSA / NRS 123, read-out: MIC (μg/ml) NRS123. How it is done:
as §1, §2

Experiment [11] deals with Staphylococcus aureus NRS482. Nature of the experiment: MIC determination using agar dilution method. It counts as cell-based. Particulars: MRSA / NRS 482, read-out: MIC (μg/ml) NRS482. How it is done: as §1, §2
Experiment [12] concerns Staphylococcus aureus NRS120. Nature of the experiment: MIC determination using agar dilution method. It counts as cell-based. Conditions: MRSA / NRS 120, read-out: MIC (μg/ml) NRS120. How it is done:
as §1, §2

Experiment [13] concerns Staphylococcus aureus NRS383. Briefly: MIC determination using agar dilution method. It counts as cell-based. Conditions: MRSA / NRS 383, read-out: MIC (μg/ml) NRS383. How it is done:
as §1, §2

For experiment [14], the system named is Staphylococcus aureus NRS100. Nature of the experiment: MIC determination using agar dilution method. Format: cell-based. Conditions: MRSA / NRS 100, read-out: MIC (μg/ml) NRS100. How it is done: as §1, §2
The test system of experiment [15] is Staphylococcus aureus NRS192. Nature of the experiment: MIC determination using agar dilution method. It counts as cell-based. Particulars: MRSA / NRS 192, read-out: MIC (μg/ml) NRS192. How it is done:
as §1, §2

For experiment [16], the system named is Staphylococcus aureus NRS386. Briefly: MIC determination using agar dilution method. Conditions: MRSA / NRS 386, read-out: MIC (μg/ml) NRS386. Format: cell-based. How it is done:
as §1, §2

Experiment [17] relates to Staphylococcus aureus NRS22. Nature of the experiment: MIC determination using agar dilution method. It counts as cell-based. Conditions: MRSA / NRS 22, read-out: MIC (μg/ml) NRS22. How it is done: as §1, §2
Experiment [18] has as its system Staphylococcus aureus NRS382. Nature of the experiment: MIC determination using agar dilution method. Conditions: MRSA / NRS 382, read-out: MIC (μg/ml) NRS382. It counts as cell-based. How it is done:
as §1, §2

In experiment [19] the test system is Staphylococcus aureus NRS384. Nature of the experiment: MIC determination using agar dilution method. It counts as cell-based. Conditions: MRSA / NRS 384, read-out: MIC (μg/ml) NRS384. How it is done:
as §1, §2

For experiment [20], the system named is Staphylococcus aureus NRS262. Nature of the experiment: MIC determination using agar dilution method. It counts as cell-based. Conditions: MSSA / NRS 262, read-out: MIC (μg/ml) NRS262. How it is done:
as §1, §2

Experiment [21] concerns Staphylococcus aureus NRS128. Nature of the experiment: MIC determination using agar dilution method. Format: cell-based. Particulars: MSSA / NRS 128, read-out: MIC (μg/ml) NRS128. How it is done:
as §1, §2

Experiment [22] deals with Staphylococcus aureus NRS484. Briefly: MIC determination using agar dilution method. It counts as cell-based. Particulars: MRSA / NRS 484, read-out: MIC (μg/ml) NRS484. How it is done:
as §1, §2

Experiment [23] has as its system Staphylococcus aureus strain ATCC 29213. Briefly: In vivo antibacterial activity, thigh infection model in neutropenic Swiss mice. Particulars: 50 mg/kg subcutaneously, 1.5 h after infection, FIG. 2.
For experiment [24], the target named is E. coli FabI (Escherichia coli (strain K12), UniProt P0AEK4). Conditions: literature (Ward et al.); cited from earlier work.

Converted amounts (≈) assume the structure as drawn.

E. coli FabI, sequence (P0AEK4 whole entry): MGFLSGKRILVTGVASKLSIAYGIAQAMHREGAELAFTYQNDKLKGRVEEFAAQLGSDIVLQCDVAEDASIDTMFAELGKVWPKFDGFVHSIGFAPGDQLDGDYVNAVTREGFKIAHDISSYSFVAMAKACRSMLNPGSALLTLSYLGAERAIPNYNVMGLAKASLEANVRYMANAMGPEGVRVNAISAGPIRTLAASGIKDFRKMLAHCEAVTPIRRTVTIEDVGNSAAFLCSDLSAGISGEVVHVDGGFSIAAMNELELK

Consider `CCCC1CCN(C(=O)/C=C/c2cnc3c(c2)CCC(=O)N3)CC1` [Example 8, 6-[(1E)-3-Oxo-3-(4-propylpiperidin-1-yl)prop-1-en-1-yl]-3,4-dihydro-1,8-naphthyridin-2(1H)-one], for which the half-inhibitory concentration (IC50) in [1] came out at 41 nM. The MIC in experiment [2] amounted to 4 µg/mL (≈ 12.2 µM).
As to `O=C1CCc2cc(/C=C/C(=O)N3CCC(Oc4ccccc4)C3)cnc2N1` (stereo not drawn) [Example 10, 6-[(1E)-3-Oxo-3-(3-phenoxypyrrolidin-1-yl)prop-1-en-1-yl]-3,4-dihydro-1,8-naphthyridin-2(1H)-one], in experiment [1], the half-maximal inhibitory concentration (IC50) was found to be 120 nM. Besides, the MIC in experiment [2] was determined as 4 µg/mL (≈ 11 µM).
Consider `CCCCCOC1CN(C(=O)/C=C/c2cnc3c(c2)CCC(=O)N3)C1` [Example 15, 6-{(1E)-3-Oxo-3-[3-(pentyloxy)azetidin-1-yl]prop-1-en-1-yl}-3,4-dihydro-1,8-naphthyridin-2(1H)-one], for which the IC50 in [1] was 25 nM. The MIC in [3] is 4 µg/mL (≈ 11.6 µM); in [4] it was 2 µg/mL (≈ 5.82 µM); in [5], 2 µg/mL (≈ 5.82 µM); in experiment [6] it was 2 µg/mL (≈ 5.82 µM); in experiment [7] it was 4 µg/mL (≈ 11.6 µM); in [8] it was 2 µg/mL (≈ 5.82 µM). In addition, the MIC in experiment [9] is 4 µg/mL (≈ 11.6 µM); in [10] it was 2 µg/mL (≈ 5.82 µM); in [11], 4 µg/mL (≈ 11.6 µM); in [12], 2 µg/mL (≈ 5.82 µM); in [13], 4 µg/mL (≈ 11.6 µM); in experiment [14], 1 µg/mL (≈ 2.91 µM). Moreover, the MIC in experiment [15], in [16], in experiment [17], in experiment [18], in experiment [19] and in experiment [20] was 4 µg/mL (≈ 11.6 µM) throughout. Further, the MIC in [21] was determined as 1 µg/mL (≈ 2.91 µM); in experiment [22] it was 4 µg/mL (≈ 11.6 µM); in [2], 4 µg/mL (≈ 11.6 µM). In addition, the “in vivo antibacterial activity (bacterial burden in the thigh of infected mice)” value in [23] is given as “able to protect mice against thigh dissemination”.
As to `Oc1cc(Cl)ccc1Oc1ccc(Cl)cc1Cl` [Triclosan], the “inhibition of E. coli FabI” value in experiment [24] is on record as “reversible, tight-binding inhibitor”.
On to `CN[C@H](CC(C)C)C(=O)N[C@H]1C(=O)N[C@@H](CC(N)=O)C(=O)N[C@H]2C(=O)N[C@H]3C(=O)N[C@H](C(=O)N[C@H](C(=O)O)c4cc(O)cc(O)c4-c4cc3ccc4O)[C@H](O)c3ccc(c(Cl)c3)Oc3cc2cc(c3O[C@@H]2O[C@H](CO)[C@@H](O)[C@H](O)[C@H]2O[C@H]2C[C@](C)(N)[C@H](O)[C@H](C)O2)Oc2ccc(cc2Cl)[C@H]1O` [Vancomycin, reference compound], for which the MIC in experiment [3], in experiment [4], in experiment [5], in [6], in experiment [7] and in [8] was 1 µg/mL (≈ 0.69 µM) throughout. The MIC in [9] came to 2 µg/mL (≈ 1.38 µM); in [10] it was 1 µg/mL (≈ 0.69 µM); in [11], 1 µg/mL (≈ 0.69 µM); in experiment [12], 1 µg/mL (≈ 0.69 µM); in experiment [13] it was 0.5 µg/mL (≈ 0.345 µM); in experiment [14], 1 µg/mL (≈ 0.69 µM). In addition, the MIC amounted to 1 µg/mL (≈ 0.69 µM) in experiment [15]; 1 µg/mL (≈ 0.69 µM) in [16]; 4 µg/mL (≈ 2.76 µM) in [17]; 1 µg/mL (≈ 0.69 µM) in [18]; 1 µg/mL (≈ 0.69 µM) in experiment [19]; 1 µg/mL (≈ 0.69 µM) in experiment [20]. The MIC in [21] and in [22] was 1 µg/mL (≈ 0.69 µM) throughout.
